{"source": "patent US20120172390A1", "about": "“METHOD OF TREATING SLEEP DISORDERS USING THE COMBINATION OF EPLIVANSERIN AND ZOLPIDEM” (priority 2009, published 2012)", "key": {"[1]": {"experiment": "Bond-Lader Visual Analog Scale (VAS), next-day morning", "assay_type": "in vivo, human"}, "[2]": {"experiment": "Global analysis of the 7 primary psychomotor/cognitive endpoints (multivariate mixed effect model)", "assay_type": "in vivo, human"}, "[3]": {"system": "GABA receptors", "conditions": "unlike benzodiazepines; cited from earlier work"}, "[4]": {"conditions": "in vivo; cited from earlier work"}, "[5]": {"parameters": "species or system human", "conditions": "in vivo"}, "[6]": {"experiment": "Steady-state levels after repeated administration in the study", "assay_type": "in vivo, human", "conditions": "after 20 days of repeated administration of eplivanserin 5 mg; also for its active metabolite", "protocol": "As a consequence, cognitive/psychomotor performance was assessed under steady state conditions."}, "[7]": {"experiment": "Adverse events and tolerability in healthy individuals", "protocol": "Single center study employing a two-part, double-blind, randomized, placebo- and active-controlled, 4-way crossover design (FIG. 1). Eligibility criteria included certification of good health, 18-50 years of age, and written informed consent.\nPart A (the first part of the study): participants were first administered either one evening dose of flurazepam 30 mg or matching placebo, and after a 21-day washout period, participants were administered the other treatment.\nPart B: participants received either an evening dose of eplivanserin 5 mg or matching placebo for 21 days, followed by co-administration with a single dose of zolpidem-IR 10 mg.\nAfter this phase of the study, participants were then administered the reverse treatment sequence.\nAdverse events were recorded (Medical Dictionary for Regulatory Activities v9.1). Other measures included vital signs, standard clinical laboratory parameters (biochemistry, hematology, and urinalysis), and electrocardiograms."}, "[8]": {"experiment": "Critical Flicker Fusion (CFF) test, next-day morning", "assay_type": "in vivo, human"}, "[9]": {"experiment": "Compensatory Tracking Task (CTT), next-day morning", "assay_type": "in vivo, human"}, "[10]": {"experiment": "Delayed Recall of Word Lists, next-day morning", "assay_type": "in vivo, human"}, "[11]": {"experiment": "Immediate recall of Word list, next-day morning", "assay_type": "in vivo, human"}, "[12]": {"conditions": "eplivanserin 5 mg evening dose for 21 days vs placebo, P>0.1"}, "[13]": {"conditions": "flurazepam 30 mg single evening dose vs placebo, P=0.0001"}}, "data": [{"smiles": "CN(C)CCO/N=C(/C=C/c1ccc(O)cc1)c1ccccc1F", "note": "[eplivanserin, (1Z, 2 E)-1-(2-fluorophenyl)-3-(4-hydroxyphenyl)-prop-2-en-1-one-O-(2-dimethylaminoethyl)oxime]", "values": [{"measurement": "Bond and Lader visual analogue scale alertness, mean difference estimate", "setting": "[1]; [12]", "value": 9.38}, {"measurement": "Overall treatment effect on the 7 primary endpoints (global analysis)", "setting": "[2]; eplivanserin 5 mg 21 days alone compared with placebo, P=0.0603", "value": "not associated with an overall treatment effect"}, {"measurement": "Binding to GABA receptors", "setting": "[3]", "value": "does not bind"}, {"measurement": "Absorption", "setting": "[4]", "value": "> 70", "unit": "%"}, {"measurement": "CRT total reaction time, mean difference estimate", "setting": "[5]", "value": -10.40, "unit": "ms"}, {"measurement": "Steady-state levels", "setting": "[6]", "value": "Steady-state levels were reached"}, {"measurement": "Headache, participants reporting", "setting": "[7]; Part B, eplivanserin 5 mg 21 days, 6/24, placebo also 25%", "value": 25, "unit": "%"}, {"measurement": "Dizziness, somnolence and asthenia, participants reporting", "setting": "[7]; Part B, eplivanserin 5 mg 21 days, 7/24, placebo 4.2% (1/24)", "value": 29.2, "unit": "%"}, {"measurement": "Tolerability", "setting": "[7]; eplivanserin 5 mg, alone and in combination with zolpidem", "value": "well tolerated"}, {"measurement": "CFF point of subjective equality, mean difference estimate", "setting": "[8]; eplivanserin 5 mg evening dose for 21 days vs placebo, P=0.0002", "value": "−1.01", "unit": "Hz"}, {"measurement": "Compensatory tracking task overall average response time, mean difference estimate", "setting": "[9]; [12]", "value": 13.03, "unit": "ms"}, {"measurement": "Compensatory tracking task overall average tracking errors, mean difference estimate", "setting": "[9]; [12]", "value": "−0.22", "unit": "pixels"}, {"measurement": "Delayed word recall number of correct responses, mean difference estimate", "setting": "[10]; [12]", "value": "−0.33"}, {"measurement": "Immediate word recall number of correct responses, mean difference estimate", "setting": "[11]; [12]", "value": "−1.04"}]}, {"smiles": "CCN(CC)CCN1C(=O)CN=C(c2ccccc2F)c2cc(Cl)ccc21", "note": "[flurazepam, reference compound]", "values": [{"measurement": "Bond and Lader visual analogue scale alertness, mean difference estimate", "setting": "[1]; flurazepam 30 mg single evening dose vs placebo, P=0.0031", "value": 62.38}, {"measurement": "Overall treatment effect on the 7 primary endpoints (global analysis)", "setting": "[2]; flurazepam 30 mg single dose compared with placebo, P=0.0001", "value": "associated with an overall treatment effect"}, {"measurement": "CRT total reaction time, mean difference estimate", "setting": "[5]", "value": 47.46, "unit": "ms"}, {"measurement": "Adverse events reported", "setting": "[7]; Part A, flurazepam 30 mg single dose, healthy individuals", "value": "2/24"}, {"measurement": "CFF point of subjective equality, mean difference estimate", "setting": "[8]; flurazepam 30 mg single evening dose vs placebo, P=0.2005", "value": "−0.52", "unit": "Hz"}, {"measurement": "Compensatory tracking task overall average response time, mean difference estimate", "setting": "[9]; flurazepam 30 mg single evening dose vs placebo, P=0.0029", "value": 49.98, "unit": "ms"}, {"measurement": "Compensatory tracking task overall average tracking errors, mean difference estimate", "setting": "[9]; flurazepam 30 mg single evening dose vs placebo, P=0.0221", "value": 1.64, "unit": "pixels"}, {"measurement": "Delayed word recall number of correct responses, mean difference estimate", "setting": "[10]; [13]", "value": "−4.38"}, {"measurement": "Immediate word recall number of correct responses, mean difference estimate", "setting": "[11]; [13]", "value": "−3.08"}]}, {"smiles": "Cc1ccc(-c2nc3ccc(C)cn3c2CC(=O)N(C)C)cc1", "note": "[zolpidem]", "values": [{"measurement": "Adverse events reported", "setting": "[7]; Part B, co-administration phase with single dose zolpidem-IR 10 mg", "value": "1/24"}]}]}
